Laboratory results published in ChEMBL document CHEMBL2385000, “Design, synthesis and biological evaluation of indeno[1,2-d]thiazole derivatives as potent histone deacetylase inhibitors” (Bioorg Med Chem Lett, 2013).

target: T1, Histone deacetylase (Homo sapiens) (UniProt Q13547+O15379+Q9UBN7+Q92769+Q9UQL6+Q8WUI4+Q9BY41+Q96DB2+P56524+Q9UKV0+Q969S8); conditions: HeLa, at 10 µM
Description: Inhibition of HDAC in human HeLa cells using Fluor de Lys as substrate at 10 uM by fluorescence assay

SMILES | inhibition [%]
Cc1ccc(Nc2nc3c(s2)Cc2cc(/C=C/C(=O)NO)ccc2-3)cc1 | 95.9
COc1ccc(Nc2nc3c(s2)Cc2cc(/C=C/C(=O)NO)ccc2-3)cc1 | 95.5
CC(C)(C)Nc1nc2c(s1)Cc1cc(/C=C/C(=O)NO)ccc1-2 | 95.3
CC(C)Nc1nc2c(s1)Cc1cc(/C=C/C(=O)NO)ccc1-2 | 97.5
O=C(/C=C/c1ccc2c(c1)Cc1sc(NC3CCCCC3)nc1-2)NO | 93.6
O=C(/C=C/c1ccc2c(c1)Cc1sc(Nc3cccnc3)nc1-2)NO | 96.5
Cc1cc(C)c(Nc2nc3c(s2)Cc2cc(/C=C/C(=O)NO)ccc2-3)c(C)c1 | 90
O=C(/C=C/c1ccc2c(c1)Cc1sc(Nc3cccc(C(F)(F)F)c3)nc1-2)NO | 86.3
CN(C)c1nc2c(s1)Cc1cc(/C=C/C(=O)NO)ccc1-2 | 97
O=C(/C=C/c1ccc2c(c1)Cc1sc(Nc3ccc(F)cc3F)nc1-2)NO | 92.3
O=C(/C=C/c1ccc2c(c1)Cc1sc(Nc3ccncc3)nc1-2)NO | 93.9
COc1ccc(CNc2nc3c(s2)Cc2cc(/C=C/C(=O)NO)ccc2-3)cc1 | 86.2
O=C(/C=C/c1ccc2c(c1)Cc1sc(Nc3ccccn3)nc1-2)NO | 77.7
O=C(/C=C/c1ccc2c(c1)Cc1sc(NCCN3CCOCC3)nc1-2)NO | 97.2
O=C(/C=C/c1ccc2c(c1)Cc1sc(Nc3ccc(Cl)cc3)nc1-2)NO | 95.3
COCCNc1nc2c(s1)Cc1cc(/C=C/C(=O)NO)ccc1-2 | 97.4
CCCNc1nc2c(s1)Cc1cc(/C=C/C(=O)NO)ccc1-2 | 93.3
O=C(/C=C/c1ccc2c(c1)Cc1sc(Nc3ccccc3)nc1-2)NO | 95.3

target: Histone deacetylase; experiment: Inhibition of HDAC in human HeLa cells using Fluor de Lys as substrate by fluorescence assay; assay type: cell-based; conditions: not given

SMILES | IC50 [nM]
CC(C)Nc1nc2c(s1)Cc1cc(/C=C/C(=O)NO)ccc1-2 | 214
O=C(/C=C/c1ccc2c(c1)Cc1sc(Nc3cccnc3)nc1-2)NO | 298
CN(C)c1nc2c(s1)Cc1cc(/C=C/C(=O)NO)ccc1-2 | 157
O=C(/C=C/c1ccc2c(c1)Cc1sc(NCCN3CCOCC3)nc1-2)NO | 164
COCCNc1nc2c(s1)Cc1cc(/C=C/C(=O)NO)ccc1-2 | 140

target: T1, Histone deacetylase (Homo sapiens); conditions: HeLa, at 1 µM
Description: Inhibition of HDAC in human HeLa cells using Fluor de Lys as substrate at 1 uM by fluorescence assay

SMILES | inhibition [%]
Cc1ccc(Nc2nc3c(s2)Cc2cc(/C=C/C(=O)NO)ccc2-3)cc1 | 7.71
COc1ccc(Nc2nc3c(s2)Cc2cc(/C=C/C(=O)NO)ccc2-3)cc1 | 45.1
CC(C)(C)Nc1nc2c(s1)Cc1cc(/C=C/C(=O)NO)ccc1-2 | 39.8
CC(C)Nc1nc2c(s1)Cc1cc(/C=C/C(=O)NO)ccc1-2 | 61.3
O=C(/C=C/c1ccc2c(c1)Cc1sc(NC3CCCCC3)nc1-2)NO | 24.8
O=C(/C=C/c1ccc2c(c1)Cc1sc(Nc3cccnc3)nc1-2)NO | 62
Cc1cc(C)c(Nc2nc3c(s2)Cc2cc(/C=C/C(=O)NO)ccc2-3)c(C)c1 | 28.1
O=C(/C=C/c1ccc2c(c1)Cc1sc(Nc3cccc(C(F)(F)F)c3)nc1-2)NO | 22.9
CN(C)c1nc2c(s1)Cc1cc(/C=C/C(=O)NO)ccc1-2 | 71.7
O=C(/C=C/c1ccc2c(c1)Cc1sc(Nc3ccc(F)cc3F)nc1-2)NO | 21.6
O=C(/C=C/c1ccc2c(c1)Cc1sc(Nc3ccncc3)nc1-2)NO | 10.2
COc1ccc(CNc2nc3c(s2)Cc2cc(/C=C/C(=O)NO)ccc2-3)cc1 | 10.7
O=C(/C=C/c1ccc2c(c1)Cc1sc(Nc3ccccn3)nc1-2)NO | 25.5
O=C(/C=C/c1ccc2c(c1)Cc1sc(NCCN3CCOCC3)nc1-2)NO | 66.9
O=C(/C=C/c1ccc2c(c1)Cc1sc(Nc3ccc(Cl)cc3)nc1-2)NO | 35.8
COCCNc1nc2c(s1)Cc1cc(/C=C/C(=O)NO)ccc1-2 | 71.6
CCCNc1nc2c(s1)Cc1cc(/C=C/C(=O)NO)ccc1-2 | 52.7
O=C(/C=C/c1ccc2c(c1)Cc1sc(Nc3ccccc3)nc1-2)NO | 20.7

test system: MCF7; experiment: Cytotoxicity against human MCF7 cells after 48 hrs by Sulforhodamine B assay; assay type: functional; conditions: not given

SMILES | GI50 [nM]
O=C(CCCCCCC(=O)Nc1ccccc1)NO [VORINOSTAT] | 689

same assay, conditions: Homo sapiens, MCF7, 48 h

SMILES | GI50 [nM]
CNc1nc2c(s1)Cc1cc(/C=C/C(=O)NO)ccc1-2 | 1390
CC(C)Nc1nc2c(s1)Cc1cc(/C=C/C(=O)NO)ccc1-2 | 1210
O=C(/C=C/c1ccc2c(c1)Cc1sc(Nc3cccnc3)nc1-2)NO | 1580
CN(C)c1nc2c(s1)Cc1cc(/C=C/C(=O)NO)ccc1-2 | 1260
O=C(/C=C/c1ccc2c(c1)Cc1sc(NCCN3CCOCC3)nc1-2)NO | 2060
COCCNc1nc2c(s1)Cc1cc(/C=C/C(=O)NO)ccc1-2 | 869

test system: HCT-116; experiment: Cytotoxicity against human HCT116 cells after 48 hrs by Sulforhodamine B assay; assay type: functional; conditions: not given

SMILES | GI50 [nM]
O=C(CCCCCCC(=O)Nc1ccccc1)NO [VORINOSTAT] | 878

same assay, conditions: Homo sapiens, HCT-116, 48 h

SMILES | GI50 [nM]
CNc1nc2c(s1)Cc1cc(/C=C/C(=O)NO)ccc1-2 | 1860
CC(C)Nc1nc2c(s1)Cc1cc(/C=C/C(=O)NO)ccc1-2 | 2100
O=C(/C=C/c1ccc2c(c1)Cc1sc(Nc3cccnc3)nc1-2)NO | 2430
CN(C)c1nc2c(s1)Cc1cc(/C=C/C(=O)NO)ccc1-2 | 1620
O=C(/C=C/c1ccc2c(c1)Cc1sc(NCCN3CCOCC3)nc1-2)NO | 1320
COCCNc1nc2c(s1)Cc1cc(/C=C/C(=O)NO)ccc1-2 | 535
